Test results reported in patent publication US20120029187A1, “HALOALKYLSULFONANILIDE DERIVATIVE” (Nissan Chemical Industries, Ltd., priority 2009, published 2012).

Assays:
Type in all cases: in vivo
barnyardgrass [1] = assay: Test Example 1: herbicidal effects in preemergence treatment under submerged conditions; details: dose 2.52 g/a
How it was run: (§1)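 Weed seeds and 2.5-leaf rice seedlings shared each flooded cup of alluvial soil. Dosing, expressed as g per are, was by pouring water-diluted emulsifiable concentrate onto the surface on sowing day. Mortality was graded 0 to 5 after three weeks' growth.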

bulrush [2] = assay: as above; details: dose 2.52 g/a
How it was run: as §1

ducksalad [3] = assay: as above; details: dose 2.52 g/a
How it was run: as §1

barnyardgrass [4] = assay: Test Example 2: herbicidal effects during the vegetation period under submerged conditions; details: treatment during the vegetation period under submerged conditions; dose 2.52 g/a
How it was run: (§2)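 Barnyardgrass, bulrush and ducksalad were co-sown in alluvial soil flooded to 4 cm and grown in a greenhouse at 25 to 30° C. At the 1- or 2-leaf stage, water-diluted emulsifiable concentrates went onto the water surface at set doses (g/a). Herbicidal effect was scored three weeks later on a graded scale.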

bulrush [5] = assay: as above; details: treatment during the vegetation period under submerged conditions; dose 2.52 g/a
How it was run: as §2

ducksalad [6] = assay: as above; details: treatment during the vegetation period under submerged conditions; dose 2.52 g/a
How it was run: as §2

Italian ryegrass [7] = assay: Test Example 3: herbicidal effects in soil treatment; details: dose 3.2 g/a
How it was run: (§3)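 Seeds were sown in sterilized diluvial soil and covered with about 1.5 cm of soil. Compounds, formulated as emulsifiable concentrates and diluted with water, were sprayed evenly over the soil surface at set doses in g/a. Herbicidal effect was scored on a rating scale three weeks later.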

barnyardgrass [8] = assay: as above; details: dose 3.2 g/a
How it was run: as §3

common chickweed [9] = assay: as above; details: dose 3.2 g/a
How it was run: as §3

common lambsquater [10] = assay: as above; details: dose 3.2 g/a
How it was run: as §3

common ragweed [11] = assay: as above; details: dose 3.2 g/a
How it was run: as §3

giant foxtail [12] = assay: as above; details: dose 3.2 g/a
How it was run: as §3

large crabgrass [13] = assay: as above; details: dose 3.2 g/a
How it was run: as §3

posumbu knotweed [14] = assay: as above; details: dose 3.2 g/a
How it was run: as §3

redroot pigweed [15] = assay: as above; details: dose 3.2 g/a
How it was run: as §3

velvetleaf [16] = assay: as above; details: dose 3.2 g/a
How it was run: as §3

water foxtail [17] = assay: as above; details: dose 3.2 g/a
How it was run: as §3

Italian ryegrass [18] = assay: Test Example 4: herbicidal effect in foliage treatment; details: three weeks after application
How it was run: (§4)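 14-day greenhouse-grown plants (25–30° C) sprayed on foliage with diluted EC; dose as g/a; effect graded after 3 weeks.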

barnyardgrass [19] = assay: as above; details: three weeks after application
How it was run: as §4

beadstraw = assay: as above; details: dose 6.3 g/a, three weeks after application
How it was run: as §4

common chickweed [20] = assay: as above; details: three weeks after application
How it was run: as §4

common lambsquater [21] = assay: as above; details: three weeks after application
How it was run: as §4

common ragweed [22] = assay: as above; details: three weeks after application
How it was run: as §4

giant foxtail [23] = assay: as above; details: three weeks after application
How it was run: as §4

large crabgrass [24] = assay: as above; details: three weeks after application
How it was run: as §4

posumbu knotweed [25] = assay: as above; details: three weeks after application
How it was run: as §4

redroot pigweed [26] = assay: as above; details: three weeks after application
How it was run: as §4

velvetleaf [27] = assay: as above; details: three weeks after application
How it was run: as §4

water foxtail [28] = assay: as above; details: three weeks after application
How it was run: as §4

transplanted rice = assay: Test Example 1: preemergence treatment under submerged conditions, effect on crop; details: dose 2.52 g/a
How it was run: as §1

| SMILES | A: barnyardgrass, herbicidal effect (evaluation scale 0-5) (barnyardgrass [1]) | B: bulrush, herbicidal effect (evaluation scale 0-5) (bulrush [2]) | C: ducksalad, herbicidal effect (evaluation scale 0-5) (ducksalad [3]) | A: barnyardgrass, herbicidal effect (evaluation scale 0-5) (barnyardgrass [4]) | B: bulrush, herbicidal effect (evaluation scale 0-5) (bulrush [5]) | C: ducksalad, herbicidal effect (evaluation scale 0-5) (ducksalad [6]) | H: Italian ryegrass, herbicidal effect (evaluation scale 0-5) (Italian ryegrass [7]) | A: barnyardgrass, herbicidal effect (evaluation scale 0-5) (barnyardgrass [8]) | N: common chickweed, herbicidal effect (evaluation scale 0-5) (common chickweed [9]) | L: common lambsquater, herbicidal effect (evaluation scale 0-5) (common lambsquater [10]) | J: common ragweed, herbicidal effect (evaluation scale 0-5) (common ragweed [11]) | E: giant foxtail, herbicidal effect (evaluation scale 0-5) (giant foxtail [12]) | D: large crabgrass, herbicidal effect (evaluation scale 0-5) (large crabgrass [13]) | M: posumbu knotweed, herbicidal effect (evaluation scale 0-5) (posumbu knotweed [14]) | K: redroot pigweed, herbicidal effect (evaluation scale 0-5) (redroot pigweed [15]) | I: velvetleaf, herbicidal effect (evaluation scale 0-5) (velvetleaf [16]) | G: water foxtail, herbicidal effect (evaluation scale 0-5) (water foxtail [17]) | a: transplanted rice, effect on crop (evaluation scale 0-5) (transplanted rice) | H: Italian ryegrass, herbicidal effect (Italian ryegrass [18]; dose 3.2 g/a) | A: barnyardgrass, herbicidal effect (barnyardgrass [19]; dose 3.2 g/a) | other results |
| --- | --- | --- | --- | --- | --- | --- | --- | --- | --- | --- | --- | --- | --- | --- | --- | --- | --- | --- | --- | --- | --- |
| CCOC(=O)N(c1ccccc1CN1CC(C)OCC1=O)S(=O)(=O)C(F)(F)F (stereo not drawn) [Compound I-7] | 5 (mortality of 90% or above (nearly complete death)) | 5 (mortality of 90% or above (nearly complete death)) | 5 (mortality of 90% or above (nearly complete death)) | 5 (mortality of 90% or above (nearly complete death)) | 5 (mortality of 90% or above (nearly complete death)) | 5 (mortality of 90% or above (nearly complete death)) | 5 (mortality of 90% or above (nearly complete death)) | 5 (mortality of 90% or above (nearly complete death)) | 5 (mortality of 90% or above (nearly complete death)) | 5 (mortality of 90% or above (nearly complete death)) | 5 (mortality of 90% or above (nearly complete death)) | 5 (mortality of 90% or above (nearly complete death)) | 5 (mortality of 90% or above (nearly complete death)) | 5 (mortality of 90% or above (nearly complete death)) | 5 (mortality of 90% or above (nearly complete death)) | 5 (mortality of 90% or above (nearly complete death)) | 5 (mortality of 90% or above (nearly complete death)) |  |  |  | H: Italian ryegrass, herbicidal effect (Italian ryegrass [18]; dose 6.3 g/a): 5 (mortality of 90% or above (nearly complete death)); A: barnyardgrass, herbicidal effect (barnyardgrass [19]; dose 6.3 g/a): 5 (mortality of 90% or above (nearly complete death)); O: beadstraw, herbicidal effect (beadstraw): 5 (mortality of 90% or above (nearly complete death)); N: common chickweed, herbicidal effect (common chickweed [20]; dose 6.3 g/a): 5 (mortality of 90% or above (nearly complete death)); L: common lambsquater, herbicidal effect (common lambsquater [21]; dose 6.3 g/a): 4 (mortality of at least 70% and less than 90%); J: common ragweed, herbicidal effect (common ragweed [22]; dose 6.3 g/a): 4 (mortality of at least 70% and less than 90%); E: giant foxtail, herbicidal effect (giant foxtail [23]; dose 6.3 g/a): 5 (mortality of 90% or above (nearly complete death)); D: large crabgrass, herbicidal effect (large crabgrass [24]; dose 6.3 g/a): 5 (mortality of 90% or above (nearly complete death)); M: posumbu knotweed, herbicidal effect (posumbu knotweed [25]; dose 6.3 g/a): 4 (mortality of at least 70% and less than 90%); K: redroot pigweed, herbicidal effect (redroot pigweed [26]; dose 6.3 g/a): 1 (mortality of at least 5% and less than 20%); I: velvetleaf, herbicidal effect (velvetleaf [27]; dose 6.3 g/a): 5 (mortality of 90% or above (nearly complete death)); G: water foxtail, herbicidal effect (water foxtail [28]; dose 6.3 g/a): 5 (mortality of 90% or above (nearly complete death)) |
| CCOC(=O)N(c1ccccc1CN1COC(C)(C2CC2)CC1=O)S(=O)(=O)C(F)(F)F (stereo not drawn) [II-45] | 5 (mortality of 90% or above (nearly complete death)) | 5 (mortality of 90% or above (nearly complete death)) | 5 (mortality of 90% or above (nearly complete death)) | 5 (mortality of 90% or above (nearly complete death)) | 5 (mortality of 90% or above (nearly complete death)) | 5 (mortality of 90% or above (nearly complete death)) | 4 (mortality of at least 70% and less than 90%) | 5 (mortality of 90% or above (nearly complete death)) | 3 (mortality of at least 40% and less than 70%) | 0 (mortality of less than 5% (almost ineffective)) | 4 (mortality of at least 70% and less than 90%) | 4 (mortality of at least 70% and less than 90%) | 4 (mortality of at least 70% and less than 90%) | 4 (mortality of at least 70% and less than 90%) | 0 (mortality of less than 5% (almost ineffective)) | 0 (mortality of less than 5% (almost ineffective)) | 5 (mortality of 90% or above (nearly complete death)) | 0 (mortality of less than 5% (almost ineffective)) | 4 (mortality of at least 70% and less than 90%) | 4 (mortality of at least 70% and less than 90%) | N: common chickweed, herbicidal effect (common chickweed [20]; dose 3.2 g/a): 3 (mortality of at least 40% and less than 70%); L: common lambsquater, herbicidal effect (common lambsquater [21]; dose 3.2 g/a): 3 (mortality of at least 40% and less than 70%); J: common ragweed, herbicidal effect (common ragweed [22]; dose 3.2 g/a): 3 (mortality of at least 40% and less than 70%); E: giant foxtail, herbicidal effect (giant foxtail [23]; dose 3.2 g/a): 2 (mortality of at least 20% and less than 40%); D: large crabgrass, herbicidal effect (large crabgrass [24]; dose 3.2 g/a): 3 (mortality of at least 40% and less than 70%); M: posumbu knotweed, herbicidal effect (posumbu knotweed [25]; dose 3.2 g/a): 3 (mortality of at least 40% and less than 70%); K: redroot pigweed, herbicidal effect (redroot pigweed [26]; dose 3.2 g/a): 0 (mortality of less than 5% (almost ineffective)); I: velvetleaf, herbicidal effect (velvetleaf [27]; dose 3.2 g/a): 2 (mortality of at least 20% and less than 40%); G: water foxtail, herbicidal effect (water foxtail [28]; dose 3.2 g/a): 4 (mortality of at least 70% and less than 90%) |
| CCOC(=O)N(c1ccccc1CN1COC(C)(c2ccccc2)CC1=O)S(=O)(=O)C(F)(F)F (stereo not drawn) [II-58] | 5 (mortality of 90% or above (nearly complete death)) | 5 (mortality of 90% or above (nearly complete death)) | 5 (mortality of 90% or above (nearly complete death)) | 4 (mortality of at least 70% and less than 90%) | 5 (mortality of 90% or above (nearly complete death)) | 5 (mortality of 90% or above (nearly complete death)) | 4 (mortality of at least 70% and less than 90%) | 0 (mortality of less than 5% (almost ineffective)) | 0 (mortality of less than 5% (almost ineffective)) | 0 (mortality of less than 5% (almost ineffective)) | 0 (mortality of less than 5% (almost ineffective)) | 0 (mortality of less than 5% (almost ineffective)) | 0 (mortality of less than 5% (almost ineffective)) | 4 (mortality of at least 70% and less than 90%) | 0 (mortality of less than 5% (almost ineffective)) | 0 (mortality of less than 5% (almost ineffective)) | 5 (mortality of 90% or above (nearly complete death)) | 0 (mortality of less than 5% (almost ineffective)) | 4 (mortality of at least 70% and less than 90%) | 3 (mortality of at least 40% and less than 70%) | N: common chickweed, herbicidal effect (common chickweed [20]; dose 3.2 g/a): 4 (mortality of at least 70% and less than 90%); L: common lambsquater, herbicidal effect (common lambsquater [21]; dose 3.2 g/a): 1 (mortality of at least 5% and less than 20%); J: common ragweed, herbicidal effect (common ragweed [22]; dose 3.2 g/a): 3 (mortality of at least 40% and less than 70%); E: giant foxtail, herbicidal effect (giant foxtail [23]; dose 3.2 g/a): 0 (mortality of less than 5% (almost ineffective)); D: large crabgrass, herbicidal effect (large crabgrass [24]; dose 3.2 g/a): 0 (mortality of less than 5% (almost ineffective)); M: posumbu knotweed, herbicidal effect (posumbu knotweed [25]; dose 3.2 g/a): 3 (mortality of at least 40% and less than 70%); K: redroot pigweed, herbicidal effect (redroot pigweed [26]; dose 3.2 g/a): 0 (mortality of less than 5% (almost ineffective)); I: velvetleaf, herbicidal effect (velvetleaf [27]; dose 3.2 g/a): 0 (mortality of less than 5% (almost ineffective)); G: water foxtail, herbicidal effect (water foxtail [28]; dose 3.2 g/a): 3 (mortality of at least 40% and less than 70%) |
